# Reference: PubChem BioAssay (NCI)
#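 Protocol summary: plate cells (96-well), add compound at 5 concentrations, incubate 48 h, interpolate endpoints linearly. Here, GI50 denotes the concentration required for 50% inhibition of growth. TGI: concentration producing complete growth inhibition.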
# Legend:
# Assay in all cases: inhibition of tumour cell growth, NCI panel, 48 h
# 786-0 renal = test system: 786-0 renal
# A498 renal = test system: A498 renal
# A549 NSCLC = test system: A549 NSCLC
# ACHN renal = test system: ACHN renal
# BT-549 breast = test system: BT-549 breast
# CAKI-1 renal = test system: CAKI-1 renal
# CCRF-CEM leukemia = test system: CCRF-CEM leukemia
# COLO 205 colon = test system: COLO 205 colon
# DU-145 prostate = test system: DU-145 prostate
# EKVX NSCLC = test system: EKVX NSCLC
# HCC-2998 colon = test system: HCC-2998 colon
# HCT-116 colon = test system: HCT-116 colon
# HCT-15 colon = test system: HCT-15 colon
# HL-60(TB) leukemia = test system: HL-60(TB) leukemia
# HOP-62 NSCLC = test system: HOP-62 NSCLC
# HOP-92 NSCLC = test system: HOP-92 NSCLC
# HS 578T breast = test system: HS 578T breast
# HT29 colon = test system: HT29 colon
# IGROV1 ovarian = test system: IGROV1 ovarian
# K-562 leukemia = test system: K-562 leukemia
# KM12 colon = test system: KM12 colon
# LOX IMVI melanoma = test system: LOX IMVI melanoma
# M14 melanoma = test system: M14 melanoma
# MALME-3M melanoma = test system: MALME-3M melanoma
# MCF7 breast = test system: MCF7 breast
# MDA-MB-231 breast = test system: MDA-MB-231 breast
# MDA-MB-435 = test system: MDA-MB-435
# MDA-MB-468 breast = test system: MDA-MB-468 breast
# MOLT-4 leukemia = test system: MOLT-4 leukemia
# NCI-H226 lung = test system: NCI-H226 lung
# NCI-H23 lung = test system: NCI-H23 lung
# NCI-H460 lung = test system: NCI-H460 lung
# NCI-H522 lung = test system: NCI-H522 lung
# NCI/ADR-RES ovarian = test system: NCI/ADR-RES ovarian
# OVCAR-3 ovarian = test system: OVCAR-3 ovarian
# OVCAR-4 ovarian = test system: OVCAR-4 ovarian
# OVCAR-5 ovarian = test system: OVCAR-5 ovarian
# OVCAR-8 ovarian = test system: OVCAR-8 ovarian
# PC-3 prostate = test system: PC-3 prostate
# RPMI-8226 leukemia = test system: RPMI-8226 leukemia
# RXF 393 renal = test system: RXF 393 renal
# SF-268 CNS = test system: SF-268 CNS
# SF-539 CNS = test system: SF-539 CNS
# SK-MEL-2 melanoma = test system: SK-MEL-2 melanoma
# SK-MEL-28 melanoma = test system: SK-MEL-28 melanoma
# SK-MEL-5 melanoma = test system: SK-MEL-5 melanoma
# SK-OV-3 ovarian = test system: SK-OV-3 ovarian
# SN12C renal = test system: SN12C renal
# SNB-19 CNS = test system: SNB-19 CNS
# SNB-75 CNS = test system: SNB-75 CNS
# SR leukemia = test system: SR leukemia
# SW-620 colon = test system: SW-620 colon
# T-47D breast = test system: T-47D breast
# TK-10 renal = test system: TK-10 renal
# U251 CNS = test system: U251 CNS
# UACC-257 melanoma = test system: UACC-257 melanoma
# UACC-62 melanoma = test system: UACC-62 melanoma
# UO-31 renal = test system: UO-31 renal
compound,measurement,setting,value
O=C(CSc1nnc(-c2ccc(-c3nc4ccc(Cl)cc4[nH]3)cc2)o1)Nc1ccccc1,GI50,786-0 renal,1.52 µM
same,TGI,786-0 renal,3.44 µM
same,GI50,A498 renal,15.2 µM
same,TGI,A498 renal,28.5 µM
same,GI50,A549 NSCLC,2.57 µM
same,TGI,A549 NSCLC,11.3 µM
same,GI50,ACHN renal,2.64 µM
same,TGI,ACHN renal,11 µM
same,GI50,BT-549 breast,2.98 µM
same,TGI,BT-549 breast,17 µM
same,GI50,CAKI-1 renal,1.9 µM
same,TGI,CAKI-1 renal,3.89 µM
same,GI50,CCRF-CEM leukemia,7.3 µM
same,TGI,CCRF-CEM leukemia,68.8 µM
same,GI50,COLO 205 colon,14.9 µM
same,TGI,COLO 205 colon,41.9 µM
same,GI50,DU-145 prostate,2.44 µM
same,TGI,DU-145 prostate,5.48 µM
same,GI50,EKVX NSCLC,4.86 µM
same,TGI,EKVX NSCLC,25.6 µM
same,GI50,HCC-2998 colon,32.8 µM
same,TGI,HCC-2998 colon,> 100 µM
same,GI50,HCT-116 colon,3.95 µM
same,TGI,HCT-116 colon,41.1 µM
same,GI50,HCT-15 colon,8.35 µM
same,TGI,HCT-15 colon,> 100 µM
same,GI50,HL-60(TB) leukemia,16.4 µM
same,TGI,HL-60(TB) leukemia,> 100 µM
same,GI50,HOP-62 NSCLC,2.18 µM
same,TGI,HOP-62 NSCLC,5.54 µM
same,GI50,HOP-92 NSCLC,2.33 µM
same,TGI,HOP-92 NSCLC,8.78 µM
same,GI50,HS 578T breast,2.92 µM
same,TGI,HS 578T breast,13.9 µM
same,GI50,HT29 colon,4.5 µM
same,TGI,HT29 colon,53.6 µM
same,GI50,IGROV1 ovarian,13.5 µM
same,TGI,IGROV1 ovarian,28.5 µM
same,GI50,K-562 leukemia,3.58 µM
same,TGI,K-562 leukemia,> 100 µM
same,GI50,KM12 colon,8.4 µM
same,TGI,KM12 colon,27.4 µM
same,GI50,LOX IMVI melanoma,1.83 µM
same,TGI,LOX IMVI melanoma,4.48 µM
same,GI50,M14 melanoma,3.39 µM
same,TGI,M14 melanoma,14.1 µM
same,GI50,MALME-3M melanoma,1.99 µM
same,TGI,MALME-3M melanoma,5.34 µM
same,GI50,MCF7 breast,7.37 µM
same,TGI,MCF7 breast,> 100 µM
same,GI50,MDA-MB-231 breast,3.26 µM
same,TGI,MDA-MB-231 breast,11.9 µM
same,GI50,MDA-MB-435,2.17 µM
same,TGI,MDA-MB-435,7.11 µM
same,GI50,MDA-MB-468 breast,15.6 µM
same,TGI,MDA-MB-468 breast,30 µM
same,GI50,MOLT-4 leukemia,8.63 µM
same,TGI,MOLT-4 leukemia,> 100 µM
same,GI50,NCI-H226 lung,1.87 µM
same,TGI,NCI-H226 lung,5.28 µM
same,GI50,NCI-H23 lung,3.04 µM
same,TGI,NCI-H23 lung,10.1 µM
same,GI50,NCI-H460 lung,0.9 µM
same,TGI,NCI-H460 lung,2.97 µM
same,GI50,NCI-H522 lung,2.74 µM
same,TGI,NCI-H522 lung,10.6 µM
same,GI50,NCI/ADR-RES ovarian,9.04 µM
same,TGI,NCI/ADR-RES ovarian,43.5 µM
same,GI50,OVCAR-3 ovarian,3.3 µM
same,TGI,OVCAR-3 ovarian,11.3 µM
same,GI50,OVCAR-4 ovarian,3.02 µM
same,TGI,OVCAR-4 ovarian,11 µM
same,GI50,OVCAR-5 ovarian,7.42 µM
same,TGI,OVCAR-5 ovarian,27.2 µM
same,GI50,OVCAR-8 ovarian,3.88 µM
same,TGI,OVCAR-8 ovarian,18 µM
same,GI50,PC-3 prostate,1.82 µM
same,TGI,PC-3 prostate,5.04 µM
same,GI50,RPMI-8226 leukemia,15.5 µM
same,TGI,RPMI-8226 leukemia,> 100 µM
same,GI50,RXF 393 renal,2.38 µM
same,TGI,RXF 393 renal,6.52 µM
same,GI50,SF-268 CNS,2.44 µM
same,TGI,SF-268 CNS,6.71 µM
same,GI50,SF-539 CNS,2.24 µM
same,TGI,SF-539 CNS,5.74 µM
same,GI50,SK-MEL-2 melanoma,14.9 µM
same,TGI,SK-MEL-2 melanoma,30.5 µM
same,GI50,SK-MEL-28 melanoma,2.52 µM
same,TGI,SK-MEL-28 melanoma,7.01 µM
same,GI50,SK-MEL-5 melanoma,3.72 µM
same,TGI,SK-MEL-5 melanoma,14.5 µM
same,GI50,SK-OV-3 ovarian,3.97 µM
same,TGI,SK-OV-3 ovarian,14.9 µM
same,GI50,SN12C renal,3.26 µM
same,TGI,SN12C renal,13.8 µM
same,GI50,SNB-19 CNS,3.26 µM
same,TGI,SNB-19 CNS,12.2 µM
same,GI50,SNB-75 CNS,1.65 µM
same,TGI,SNB-75 CNS,4.8 µM
same,GI50,SR leukemia,16.3 µM
same,TGI,SR leukemia,> 100 µM
same,GI50,SW-620 colon,3.54 µM
same,TGI,SW-620 colon,15.9 µM
same,GI50,T-47D breast,17.1 µM
same,TGI,T-47D breast,41.4 µM
same,GI50,TK-10 renal,20.9 µM
same,TGI,TK-10 renal,39 µM
same,GI50,U251 CNS,4.54 µM
same,TGI,U251 CNS,17.9 µM
same,GI50,UACC-257 melanoma,5.91 µM
same,TGI,UACC-257 melanoma,21.8 µM
same,GI50,UACC-62 melanoma,6.71 µM
same,TGI,UACC-62 melanoma,19.5 µM
same,GI50,UO-31 renal,10.8 µM
same,TGI,UO-31 renal,22.9 µM
